Assay results published in the supplement of paper PMC10307832.

Key:
Assay in all cases: relative viability (nuclei count vs DMSO), 5 days (fraction); higher = more cells survive
[1] = compound: Cc1ccc(NC(=O)c2ccc(CN3CCN(C)CC3)cc2)cc1Nc1nccc(-c2cccnc2)n1 [Imatinib] + CC(C)C[C@H](NC(=O)[C@H](Cc1ccccc1)NC(=O)c1cnccn1)B(O)O [Bortezomib] (partner 0.002 µM)
Method in brief: (§1)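 Lung cancer cell lines were seeded in 1536-well plates and dosed by pin tool the next day, with either a single drug or a fixed anchor-drug dose combined with five library-drug doses (not always all listed) spaced in √10 steps. Five days later, one step fixed the cells and stained their nuclei (final 0.05% Triton X-100, 1% formaldehyde, 1 ug/ml Hoechst), and nuclei were counted on 4× images. Relative viability is the nuclei count in treated wells divided by the count in vehicle wells, and each value is the median of duplicate plates.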

[2] = compound: Cc1ccc(NC(=O)c2ccc(CN3CCN(C)CC3)cc2)cc1Nc1nccc(-c2cccnc2)n1 [Imatinib] + CCNC(=O)c1noc(-c2cc(C(C)C)c(O)cc2O)c1-c1ccc(CN2CCOCC2)cc1 [Luminespib] (partner 0.01 µM)
Method in brief: as §1

[3] = compound: Cc1ccc(NC(=O)c2ccc(CN3CCN(C)CC3)cc2)cc1Nc1nccc(-c2cccnc2)n1 [Imatinib] + C[C@]1(O)C[C@@H](c2nc(-c3ccc4ccc(-c5ccccc5)nc4c3)c3c(N)nccn32)C1 [Linsitinib] (partner 1 µM)
Method in brief: as §1

[4] = compound: Cc1ccc(NC(=O)c2ccc(CN3CCN(C)CC3)cc2)cc1Nc1nccc(-c2cccnc2)n1 [Imatinib] + NC(=O)Nc1cc(-c2cccc(F)c2)sc1C(=O)N[C@H]1CCCNC1 [AZD7762] (partner 0.2 µM)
Method in brief: as §1

Row | Cell Line | relative viability ([1]; first compound 0.02 µM) | relative viability ([1]; first compound 0.06325 µM) | relative viability ([1]; first compound 0.2 µM) | relative viability ([1]; first compound 0.6325 µM) | relative viability ([1]; first compound 2 µM) | relative viability ([2]; first compound 0.02 µM) | relative viability ([2]; first compound 0.06325 µM) | relative viability ([2]; first compound 0.2 µM) | relative viability ([2]; first compound 0.6325 µM) | relative viability ([2]; first compound 2 µM) | relative viability ([3]; first compound 0.02 µM) | relative viability ([3]; first compound 0.06325 µM) | relative viability ([3]; first compound 0.2 µM) | relative viability ([3]; first compound 0.6325 µM) | relative viability ([3]; first compound 2 µM) | relative viability ([4]; first compound 0.02 µM) | relative viability ([4]; first compound 0.06325 µM) | relative viability ([4]; first compound 0.2 µM) | relative viability ([4]; first compound 2 µM) | relative viability ([4]; first compound 0.6325 µM)
1 | NCI-H2023 | 1.08 | 0.425 | 1.16 | 0.925 | 1.02 | 1.04 | 1.03 | 1.07 | 1.17 | 1.1 | 0.778 | 0.871 | 0.796 | 0.682 | 0.719 | – | – | – | – | –
2 | NCI-H1563 | 0.885 | 0.789 | 0.889 | 0.809 | 0.86 | 0.486 | 0.537 | 0.545 | 0.496 | 0.471 | 1.15 | 1.31 | 1.22 | 1.25 | 1.16 | – | – | – | – | –
3 | LK-2 | – | – | – | – | – | 0.168 | 0.174 | 0.168 | 0.196 | 0.199 | 0.614 | 0.427 | 0.739 | 0.222 | 0.689 | 0.343 | 0.442 | 0.335 | 0.33 | –
4 | IA-LM | 0.767 | 1.03 | 0.937 | 0.744 | 0.784 | – | – | – | – | – | 0.688 | 0.652 | 0.561 | 1.38 | 0.593 | – | – | – | – | –
5 | HCC-366 | 1.46 | – | 1.5 | 1.07 | 0.929 | – | – | – | – | – | 0.685 | – | 1.02 | 0.692 | 0.844 | 0.367 | 0.364 | 0.288 | 0.181 | 0.208
6 | NCI-H1703 | 0.289 | 0.29 | 0.138 | 0.214 | 0.186 | – | – | – | – | – | 0.629 | 0.204 | 0.449 | 0.418 | 0.138 | 0.135 | – | 0.103 | 0.114 | 0.124
7 | NCI-H1734 | 1.3 | – | 1.02 | 0.938 | – | 0.194 | 0.204 | 0.181 | 0.177 | 0.233 | – | – | – | – | – | 0.673 | – | 0.516 | 0.484 | 0.48
8 | SW 1573 | 1.05 | 1.43 | 1.2 | 1.03 | 1.12 | 0.23 | 0.348 | 0.293 | 0.26 | 0.233 | 0.879 | 0.965 | 0.799 | 0.685 | 0.809 | – | – | – | – | –
9 | UMC-11 | 0.707 | 0.841 | 0.939 | 0.844 | 0.668 | 1.19 | 1.22 | 1.04 | – | 0.96 | 1.14 | 1.57 | 1.05 | 1.08 | 1.06 | – | – | – | – | –
10 | NCI-H2342 | – | – | – | – | – | 0.787 | 0.757 | 0.728 | 0.649 | 0.715 | – | – | – | – | – | 0.434 | 0.493 | 0.443 | 0.553 | 0.455
11 | NCI-H661 | 0.81 | 0.613 | 0.821 | 0.607 | 0.852 | 0.931 | 1.03 | 1.01 | 0.934 | 0.874 | 0.553 | 0.345 | 0.611 | 0.362 | 0.56 | – | – | – | – | –
12 | NCI-H2228 | 1.13 | 0.782 | 1.14 | 1.01 | 0.895 | 0.147 | – | 0.126 | 0.12 | 0.152 | 0.742 | 0.555 | 0.678 | 0.482 | 0.638 | – | – | – | – | –
